pIC50: −log10 of the molar value.
biological target: MAPK14 (human) (UniProt Q16539); test: Inhibition of MAPK14 Kinase Activity
Sequence (Q16539 whole entry, looked up): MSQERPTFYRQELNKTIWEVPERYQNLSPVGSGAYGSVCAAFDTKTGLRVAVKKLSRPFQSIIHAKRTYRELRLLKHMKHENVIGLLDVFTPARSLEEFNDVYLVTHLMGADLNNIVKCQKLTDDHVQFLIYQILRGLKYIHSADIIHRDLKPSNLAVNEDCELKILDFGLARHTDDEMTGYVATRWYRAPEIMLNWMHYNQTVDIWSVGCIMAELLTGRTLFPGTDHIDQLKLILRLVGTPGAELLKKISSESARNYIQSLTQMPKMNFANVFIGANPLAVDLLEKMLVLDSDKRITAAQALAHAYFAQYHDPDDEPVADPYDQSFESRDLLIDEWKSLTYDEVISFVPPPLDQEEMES

SMILES | pIC50
O=C1CCC(Cc2ccc(Cl)cc2Cl)CN1c1c(Cl)cncc1Cl (configuration not stated) | ≥ 5.00
CN(C)CCCCc1cc(Cl)c(N2CC(Cc3ccc(F)cc3F)CCC2=O)c(Cl)c1 (configuration not stated) | ≥ 5.00
CN1CCN(CCNc2cc(Cl)c(N3CC(Cc4ccc(F)cc4F)CCC3=O)c(Cl)c2)CC1 (configuration not stated) | ≥ 5.00
O=C1CCC(Sc2ccc(F)cc2F)CN1c1c(Cl)sc(O)c1Cl (configuration not stated) | ≥ 5.00
O=C1CCC(Cc2ccc(F)cc2F)CN1c1cc(NCCO)ccc1Cl (configuration not stated) | ≥ 5.00
Cc1ccc(OC2CCC(=O)N(c3c(Cl)cncc3Cl)C2)cc1 (configuration not stated) | ≥ 5.00
O=C1CCC(Oc2ccc(F)cc2F)CN1c1c(Cl)sc(CO)c1Cl (configuration not stated) | ≥ 5.00
O=C1OCC(Cc2ccc(Cl)cc2Cl)CN1c1c(Cl)cccc1Cl (configuration not stated) | ≥ 5.00
O=C1CCC(Oc2ccccc2F)CN1c1c(Cl)csc1Cl (configuration not stated) | ≥ 5.00
Cc1cc(C)cc(SC2CCC(=O)N(c3c(Cl)cncc3Cl)C2)c1 (configuration not stated) | ≥ 5.00
O=C1CCC(Sc2ccccc2Cl)CN1c1c(Cl)cncc1Cl (configuration not stated) | ≥ 5.00
O=C1CCC(Cc2ccccc2Cl)CN1c1c(Cl)cncc1Cl (configuration not stated) | ≥ 5.00
CN1CC(Cc2cc(F)cc(F)c2)CN(c2c(Cl)cccc2Cl)C1=O (configuration not stated) | ≥ 5.00
CC(=O)Nc1ccc(Cl)c(N2CC(Cc3ccc(F)cc3F)CNC2=O)c1Cl (configuration not stated) | ≥ 5.00
O=C(Cc1ccccc1)NC1CC(Cl)C(N2CC(Sc3ccc(F)cc3F)CCC2=O)C(Cl)C1 (configuration not stated) | ≥ 5.00
O=C1CCC(Cc2ccc(F)cc2F)CN1c1c(Cl)cc(NC2CCNCC2)cc1Cl (configuration not stated) | ≥ 5.00
N#C/C=C/c1cc(Cl)c(N2CC(Cc3ccc(F)cc3F)CCC2=O)c(Cl)c1 (configuration not stated) | ≥ 5.00
O=C1CCC(Oc2ccc3ccccc3c2)CN1c1c(Cl)csc1Cl (configuration not stated) | ≥ 5.00
NC1CCC(Cl)C(N2CC(Oc3ccc(F)cc3F)CCC2=O)C1Cl (configuration not stated) | ≥ 5.00
CNc1ccc(Cl)c(N2CC(Cc3ccc(F)cc3F)CN(C)C2=O)c1Cl (configuration not stated) | ≥ 5.00

SMILES | pIC50
O=C1CCC(Sc2ccc(F)cc2F)CN1c1c(Cl)sc(CO)c1Cl (configuration not stated) | ≥ 5.00
Nc1sc(Cl)c(N2CC(Oc3ccc(F)cc3F)CCC2=O)c1Cl (configuration not stated) | ≥ 5.00
Cc1cc(C(=O)N2CCOCC2)cc(C)c1N1CC(Cc2ccc(F)cc2F)CCC1=O (configuration not stated) | ≥ 5.00
Cc1ccc(SC2CCC(=O)N(c3c(Cl)cccc3Cl)C2)cc1 (configuration not stated) | ≥ 5.00
CN1CCN(c2cc(Cl)c(N3CC(Cc4ccc(F)cc4F)CCC3=O)c(Cl)c2)CC1 (configuration not stated) | ≥ 5.00
Cc1cccc(C)c1N1CC(CCCc2ccccc2)CCC1=O (configuration not stated) | ≥ 5.00
C[C@@H]1C[C@H](Cc2ccc(F)cc2F)CN(c2c(Cl)cccc2Cl)C1=O | ≥ 5.00
O=C1CCC(Sc2ccc(F)cc2F)CN1c1c(Cl)ccc(O)c1Cl (configuration not stated) | ≥ 5.00
O=C1CCC(Cc2ccc(F)cc2F)CN1c1c(Cl)sc(CO)c1Cl (configuration not stated) | ≥ 5.00
CC(=O)NC1CCC(Cl)C(N2CC(Oc3ccc(F)cc3F)CCC2=O)C1Cl (configuration not stated) | ≥ 5.00
O=C1CCC(Cc2cc(Cl)cc(Cl)c2)CN1c1c(Cl)cccc1Cl (configuration not stated) | ≥ 5.00
O=C1NCC(Cc2ccc3ccccc3c2)CN1c1c(Cl)cccc1Cl (configuration not stated) | ≥ 5.00
O=C1CCC(Oc2cc(F)cc(F)c2)CN1c1c(Cl)cccc1Cl (configuration not stated) | ≥ 5.00
CC(=O)Nc1ncc(Cl)c(N2CC(Sc3ccc(F)cc3F)CCC2=O)c1Cl (configuration not stated) | ≥ 5.00
O=C(Cc1ccccc1)Nc1ccc(Cl)c(N2CC(Cc3ccc(F)cc3F)CSC2=O)c1Cl (configuration not stated) | ≥ 5.00
Cc1cc(C(=O)O)cc(C)c1N1C[C@@H](Cc2ccc(F)cc2F)C[C@@H](C)C1=O | ≥ 5.00
O=C1CCC(Oc2ccccc2)CN1c1c(Cl)cncc1Cl (configuration not stated) | ≥ 5.00
Cc1ccc2ccccc2c1N1CC(Cc2ccc(F)cc2F)CCC1=O (configuration not stated) | ≥ 5.00
Cc1ccccc1CC1CN(c2c(Cl)cccc2Cl)C(=O)CO1 (configuration not stated) | ≥ 5.00
Cc1ccccc1SC1CCC(=O)N(c2c(Cl)cccc2Cl)C1 (configuration not stated) | ≥ 5.00

Now from value to compound:

pIC50 | SMILES
≥ 5.00 | Cc1cccc(C)c1N1CC(Cc2ccc(F)cc2F)CCC1=O (configuration not stated)
≥ 5.00 | O=C1CCC(Cc2ccc(F)cc2F)CN1c1c(Cl)cc(O)nc1Cl (configuration not stated)
≥ 5.00 | O=C1CCC(Cc2ccc(F)cc2F)CN1c1c(Cl)ccc(O)c1Cl (configuration not stated)
≥ 5.00 | NC1CCC(Cl)C(N2CC(Sc3ccc(F)cc3F)CCC2=O)C1Cl (configuration not stated)
≥ 5.00 | Cc1ccc(SC2CCC(=O)N(c3c(Cl)ccnc3Cl)C2)c(C)c1 (configuration not stated)
≥ 5.00 | O=C(Cc1ccccc1)Nc1ccc(Cl)c(N2CC(Cc3ccc(F)cc3F)CNC2=O)c1Cl (configuration not stated)
≥ 5.00 | Cc1ccccc1OC1CCC(=O)N(c2c(Cl)ccnc2Cl)C1 (configuration not stated)
≥ 5.00 | COc1ccccc1OC1CCC(=O)N(c2c(Cl)cncc2Cl)C1 (configuration not stated)
≥ 5.00 | COC(c1ccc(F)cc1F)C1CCC(=O)N(c2c(Cl)cccc2Cl)C1 (configuration not stated)
≥ 5.00 | O=C1CCC(Sc2cccc3ccccc23)CN1c1c(Cl)ccnc1Cl (configuration not stated)
≥ 5.00 | CNc1ccc(Cl)c(N2CC(Cc3ccc(F)cc3F)CCC2=O)c1Cl (configuration not stated)
≥ 5.00 | O=C1CCC(Cc2ccc(F)cc2F)CN1c1c(Cl)cnc(O)c1Cl (configuration not stated)
≥ 5.00 | Cc1cc(C(=O)NCCN(C)C)cc(C)c1N1C[C@@H](Cc2ccc(F)cc2F)C[C@@H](C)C1=O
≥ 5.00 | O=C1CCC(Cc2ccc(C(F)(F)F)cc2)CN1c1c(Cl)cccc1Cl (configuration not stated)
≥ 5.00 | O=C1CCC(Oc2ccc(Cl)cc2Cl)CN1c1c(Cl)cccc1Cl (configuration not stated)
≥ 5.00 | O=C1CCC(Cc2cc(Cl)cc(Cl)c2)CN1c1c(Cl)cncc1Cl (configuration not stated)
≥ 5.00 | COc1ccccc1CC1CN(c2c(Cl)cccc2Cl)C(=O)CO1 (configuration not stated)
≥ 5.00 | O=C1CCC(Oc2ccc(F)cc2F)CN1c1c(Cl)ccnc1Cl (configuration not stated)
≥ 5.00 | Cc1cc(C)cc(OC2CCC(=O)N(c3c(Cl)ccnc3Cl)C2)c1 (configuration not stated)
≥ 5.00 | Cc1cccc(C)c1N1CC(Cc2ccccc2OCC(C)C)CCC1=O (configuration not stated)
≥ 5.00 | COc1ccc(CC2CCC(=O)N(c3c(Cl)csc3Cl)C2)cc1 (configuration not stated)

pIC50 | SMILES
≥ 5.00 | O=C1CCC(Oc2ccccc2)CN1c1c(Cl)csc1Cl (configuration not stated)
≥ 5.00 | O=C1CCC(Sc2ccc3ccccc3c2)CN1C1C(Cl)CCCC1Cl (configuration not stated)
≥ 5.00 | Nc1cc(Cl)c(N2CC(Cc3ccc(F)cc3F)CCC2=O)c(Cl)n1 (configuration not stated)
≥ 5.00 | O=C1CCC(Oc2ccc(Cl)cc2Cl)CN1c1c(Cl)ccnc1Cl (configuration not stated)
≥ 5.00 | Cc1ccc(CC2CCC(=O)N(C3C(Cl)CCCC3Cl)C2)cc1 (configuration not stated)
≥ 5.00 | O=C1CCC(Oc2ccc(F)cc2)CN1c1c(Cl)csc1Cl (configuration not stated)
≥ 5.00 | Cc1ccc(SC2CCC(=O)N(c3c(Cl)ccnc3Cl)C2)cc1 (configuration not stated)
≥ 5.00 | O=C1SCC(Cc2ccccc2F)CN1c1c(Cl)cccc1Cl (configuration not stated)
≥ 5.00 | O=C1CSC(Cc2ccc(F)cc2F)CN1c1c(Cl)ccc(O)c1Cl (configuration not stated)
≥ 5.00 | Nc1ccc(Cl)c(N2CC(Cc3ccc(F)cc3F)OCC2=O)c1Cl (configuration not stated)
≥ 5.00 | Cc1ccccc1SC1CCC(=O)N(c2c(Cl)cncc2Cl)C1 (configuration not stated)
≥ 5.00 | Cc1cc(C)cc(CC2CN(c3c(Cl)cccc3Cl)C(=O)CS2)c1 (configuration not stated)
≥ 5.00 | O=C1CNC(Cc2ccc(F)cc2F)CN1c1c(Cl)cccc1Cl (configuration not stated)
≥ 5.00 | O=C1CCC(Oc2cc(Cl)cc(Cl)c2)CN1c1c(Cl)csc1Cl (configuration not stated)
≥ 5.00 | O=C1CCC(Oc2ccc(F)cc2F)CN1C1C(Cl)CCC(CO)C1Cl (configuration not stated)
≥ 5.00 | CCN(CC)CCNc1cc(Cl)c(N2CC(Cc3ccc(F)cc3F)CCC2=O)c(Cl)c1 (configuration not stated)
≥ 5.00 | O=C1CCC(Cc2ccc(F)cc2F)CN1c1ccccc1CCO (configuration not stated)
≥ 5.00 | O=C1CCC(Sc2cc(Cl)cc(Cl)c2)CN1c1c(Cl)csc1Cl (configuration not stated)
≥ 5.00 | O=C1CCC(Cc2ccccc2)CN1c1c(Cl)cc([N+](=O)[O-])cc1Cl (configuration not stated)
≥ 5.00 | O=C1CCC(Oc2ccc(F)cc2F)CN1C1C(Cl)CCCC1Cl (configuration not stated)
≥ 5.00 | O=C(O)CCCC(=O)Nc1cc(Cl)c(N2CC(Cc3ccc(F)cc3F)CCC2=O)c(Cl)c1 (configuration not stated)
